Literature values as cited in PMC4877185 (Molecular imaging and biology : MIB : the official …, 2016).
pEC50: −log10 of the molar value.

Assays:
GLP-1R [1] = details: greater affinity than truncated antagonist exendin-(9–39)-amide
GLP-1R [2] = details: read-out: cAMP EC50; unlabeled conjugates, GLP-1R agonist

| pEC50 (GLP-1R [2]) | Substance | Binding affinity for GLP-1R relative to exendin-(9–39)-amide (GLP-1R [1]) [fold] |
| --- | --- | --- |
| – | Exendin-4 | ~10 |
| 10.57 | DO3A-VS-Cys^40-exendin-4 | – |
